According to EP0938471B1, “THE PREPARATION AND USE OF ORTHO-SULFONAMIDO ARYL HYDROXAMIC ACIDS AS MATRIX METALLOPROTEINASE AND TACE INHIBITORS” (priority 1996, dated 1998):
Like-named read-outs stand apart in the source and are kept apart here.

Experiments:
Format in all cases: biochemical
MMP-13 = MMP-13 (Homo sapiens, UniProt P45452); assay: MMP-13 inhibition (thiopeptide or fluorescent peptide substrate assay)
TACE = TACE (Homo sapiens, UniProt P78536); assay: TACE inhibition (fluorescent peptidyl substrate); details: for inhibition at 1 µM: at 1µM concentration
Sequence of TACE (P78536 215-824): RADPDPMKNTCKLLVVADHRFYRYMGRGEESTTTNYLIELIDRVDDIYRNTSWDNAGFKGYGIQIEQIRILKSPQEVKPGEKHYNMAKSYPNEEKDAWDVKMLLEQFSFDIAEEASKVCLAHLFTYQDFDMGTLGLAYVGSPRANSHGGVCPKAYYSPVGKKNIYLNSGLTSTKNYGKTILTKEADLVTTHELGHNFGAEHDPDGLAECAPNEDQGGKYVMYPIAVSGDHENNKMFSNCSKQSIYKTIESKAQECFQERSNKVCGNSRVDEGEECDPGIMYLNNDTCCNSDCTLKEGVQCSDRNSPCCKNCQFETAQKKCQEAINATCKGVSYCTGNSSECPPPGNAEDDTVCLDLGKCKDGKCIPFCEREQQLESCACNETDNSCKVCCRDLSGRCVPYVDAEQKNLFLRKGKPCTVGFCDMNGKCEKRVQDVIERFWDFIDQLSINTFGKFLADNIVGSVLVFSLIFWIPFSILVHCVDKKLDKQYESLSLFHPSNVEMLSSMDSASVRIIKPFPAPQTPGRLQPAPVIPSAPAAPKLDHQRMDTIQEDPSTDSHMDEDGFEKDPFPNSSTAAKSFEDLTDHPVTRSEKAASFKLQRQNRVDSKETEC

MMP-9 = MMP-9 (Homo sapiens, UniProt P14780); assay: MMP-9 inhibition (thiopeptide or fluorescent peptide substrate assay); details: read-out: MMP-9 IC50
Sequence of MMP-9 (P14780 94-707): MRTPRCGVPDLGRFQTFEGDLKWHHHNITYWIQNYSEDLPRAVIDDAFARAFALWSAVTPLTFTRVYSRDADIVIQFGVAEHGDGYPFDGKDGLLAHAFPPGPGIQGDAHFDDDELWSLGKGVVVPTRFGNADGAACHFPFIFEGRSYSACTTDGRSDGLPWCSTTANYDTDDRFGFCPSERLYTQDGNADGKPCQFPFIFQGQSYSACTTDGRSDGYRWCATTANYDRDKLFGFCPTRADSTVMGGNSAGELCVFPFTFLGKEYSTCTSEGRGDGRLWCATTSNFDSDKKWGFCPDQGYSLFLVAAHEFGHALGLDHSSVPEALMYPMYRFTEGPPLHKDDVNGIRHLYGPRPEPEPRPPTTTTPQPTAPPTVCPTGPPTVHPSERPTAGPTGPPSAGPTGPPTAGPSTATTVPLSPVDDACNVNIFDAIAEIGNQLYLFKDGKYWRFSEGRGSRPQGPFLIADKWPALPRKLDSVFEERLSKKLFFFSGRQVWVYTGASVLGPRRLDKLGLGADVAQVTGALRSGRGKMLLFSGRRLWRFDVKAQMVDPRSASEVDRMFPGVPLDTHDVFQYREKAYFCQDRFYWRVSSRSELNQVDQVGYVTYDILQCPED

MMP-1 = biological target: T1, MMP-1 (Homo sapiens, UniProt P03956); assay: MMP-1 inhibition (thiopeptide or fluorescent peptide substrate assay); details: read-out: MMP-1 IC50
T1 sequence (P03956 100-469): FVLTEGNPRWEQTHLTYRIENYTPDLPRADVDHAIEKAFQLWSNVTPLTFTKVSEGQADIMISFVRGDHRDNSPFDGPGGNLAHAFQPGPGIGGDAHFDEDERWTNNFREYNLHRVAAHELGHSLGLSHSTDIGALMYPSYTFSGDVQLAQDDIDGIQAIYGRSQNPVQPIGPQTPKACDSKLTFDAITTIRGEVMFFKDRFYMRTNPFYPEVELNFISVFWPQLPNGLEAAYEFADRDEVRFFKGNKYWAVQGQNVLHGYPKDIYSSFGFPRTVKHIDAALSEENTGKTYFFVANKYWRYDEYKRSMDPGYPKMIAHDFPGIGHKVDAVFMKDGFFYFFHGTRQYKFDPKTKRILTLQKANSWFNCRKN

SMILES	IC50 (MMP-13; read-out: MMP-13 IC50)	IC50 (TACE; read-out: TACE IC50)	IC50 (MMP-9)	IC50 (MMP-1)	IC50 (TACE)	inhibition at 1 µM (TACE)	IC50 (MMP-13)
COc1ccc(S(=O)(=O)N(Cc2ccccc2)c2ccc(C)cc2C(=O)NO)cc1 [Example 29, 2-[Benzyl-(4-methoxy-benzenesulfonyl)-amino]-N-hydroxy-5-methyl-benzamide]	0.728 µM	1 µM	0.353 µM	0.553 µM	–	–	–
COCCOCOc1cccc(C(=O)NO)c1N(Cc1ccccc1)S(=O)(=O)c1ccc(OC)cc1 [Example 56, 2-[Benzyl-(4-methoxy-benzenesulfonyl)-amino]-N-hydroxy-3-(2-methoxy-ethoxymethoxy)-benzamide]	0.138 µM	> 1 µM	0.057 µM	> 1 µM	–	–	–
COc1ccc(S(=O)(=O)N(Cc2ccccc2)c2c(OCCCCC(=O)NO)cccc2C(=O)NO)cc1 [Example 59, 2-[Benzyl-(4-methoxy-benzenesulfonyl)-amino]-N-hydroxy-3-(4-hydroxycarbamoyl-butoxy)-benzamide]	0.034 µM	> 1 µM	0.008 µM	0.242 µM	–	–	–
COc1ccc(S(=O)(=O)N(Cc2ccccc2)c2c(C)cc(C)cc2C(=O)NO)cc1 [Example 68, 2-[Benzyl-(4-methoxy-benzenesulfonyl)-amino]-N-hydroxy-3,5-dimethyl-benzamide]	0.015 µM	0.239 µM	0.021 µM	0.082 µM	–	–	–
Cc1cc(C)c(N(Cc2ccccc2)S(=O)(=O)c2ccc(F)cc2)c(C(=O)NO)c1 [Example 69, 2-[Benzyl-(4-fluoro-benzenesulfonyl)-amino]-N-hydroxy-3,5-dimethyl-benzamide]	1.37 µM	> 1 µM	0.874 µM	0.153 µM	–	–	–
CCCCOc1ccc(S(=O)(=O)N(Cc2ccccc2)c2c(C)cc(C)cc2C(=O)NO)cc1 [Example 72, 2-[Benzyl-(4-butoxy-benzenesulfonyl)-amino]-N-hydroxy-3,5-dimethyl-benzamide]	0.137 µM	0.377 µM	0.144 µM	> 1 µM	–	–	–
Cc1cc(C)c(N(Cc2ccccc2)S(=O)(=O)c2ccc(OCc3ccccc3)cc2)c(C(=O)NO)c1 [Example 74, 2-[Benzyl-(4-benzyloxy-benzenesulfonyl)-amino]-N-hydroxy-3,5-dimethyl-benzamide]	0.959 µM	–	0.554 µM	> 1 µM	0.429 µM	–	–
COc1ccc(S(=O)(=O)N(Cc2ccccc2)c2cc3ccccc3cc2C(=O)NO)cc1 [Example 94, 3-[Benzyl-(4-methoxy-benzenesulfonyl)-amino]-naphthalene-2-carboxylic acid hydroxyamide]	0.209 µM	> 1 µM	0.276 µM	1 µM	–	–	–
COc1ccc(S(=O)(=O)N(Cc2ccccc2Br)c2c(C)cc(C)cc2C(=O)NO)cc1 [Example 118, 2-[(2-Bromo-benzyl)-(4-methoxy-benzenesulfonyl)-amino]-N-hydroxy-3,5-dimethyl-benzamide]	0.229 µM	> 1 µM	0.345 µM	0.248 µM	–	–	–
CCN(c1c(C)cc(C)cc1C(=O)NO)S(=O)(=O)c1ccc(OC)cc1 [Example 131, 2-[Ethyl-(4-methoxy-benzenesulfonyl)-amino]-N-hydroxy-3,5-dimethyl-benzamide]	0.048 µM	0.08 µM	0.054 µM	0.212 µM	–	–	–
COc1ccc(S(=O)(=O)N(Cc2cccnc2)c2c(Br)cc(C)cc2C(=O)NO)cc1 [Example 138, 3-Bromo-N-hydroxy-2-[(4-methoxy-benzenesulfonyl)-pyridin-3-ylmethyl-amino]-5-methyl-benzamide]	0.057 µM	0.215 µM	0.077 µM	0.258 µM	–	–	–
COc1ccc(S(=O)(=O)N(Cc2ccccc2)c2c(C#N)cc(C)cc2C(=O)NO)cc1 [Example 179]	0.053 µM	–	0.04 µM	0.68 µM	–	64%	–
CCN(CC)Cc1cccc(C(=O)NO)c1N(C)S(=O)(=O)c1ccc(OC)cc1 [Example 191, 3-Diethylaminomethyl-N-hydroxy-2-[(4-methoxybenzenesulfonyl)-methylamino]benzamide]	0.067 µM	0.21 µM	0.01 µM	1.24 µM	–	–	–

Results, then the compound that gave them:

IC50 (MMP-13; read-out: MMP-13 IC50)	IC50 (TACE; read-out: TACE IC50)	IC50 (MMP-9)	IC50 (MMP-1)	IC50 (TACE)	inhibition at 1 µM (TACE)	IC50 (MMP-13)	SMILES
0.216 µM	> 1 µM	0.029 µM	0.67 µM	–	–	–	COc1ccc(S(=O)(=O)N(Cc2ccccc2)c2c(OCC(F)(F)F)cccc2C(=O)NO)cc1 [Example 55, 2-[Benzyl-(4-methoxy-benzenesulfonyl)-amino]-N-hydroxy-3-(2,2,2-trifluoroethoxy)-benzamide]
0.033 µM	1 µM	0.012 µM	> 0.5 µM	–	–	–	COc1ccc(S(=O)(=O)N(Cc2ccccc2)c2c(OCc3ccc(C(=O)NO)cc3)cccc2C(=O)NO)cc1 [Example 57, 2-[Benzyl-(4-methoxy-benzenesulfonyl)-amino]-3-[4-(hydroxyaminocarbonyl)-benzyloxy]-N-hydroxy-benzamide]
0.036 µM	0.682 µM	0.005 µM	0.244 µM	–	–	–	COc1ccc(S(=O)(=O)N(Cc2ccccc2)c2c(OCCCC(=O)NO)cccc2C(=O)NO)cc1 [Example 58, 2-[Benzyl-(4-methoxy-benzenesulfonyl)-amino]-N-hydroxy-3-(3-hydroxycarbamoyl-propoxy)-benzamide]
0.015 µM	0.232 µM	0.007 µM	0.152 µM	–	–	–	COc1ccc(S(=O)(=O)N(Cc2ccccc2)c2c(OC(C)C)cccc2C(=O)NO)cc1 [Example 60, 2-[Benzyl-(4-methoxy-benzenesulfonyl)-amino]-N-hydroxy-3-isopropoxy-benzamide]
0.018 µM	0.134 µM	0.021 µM	0.109 µM	–	–	–	C#Cc1cc(C)c(N(Cc2ccccc2)S(=O)(=O)c2ccc(OC)cc2)c(C(=O)NO)c1 [Example 80, 2-[Benzyl-(4-methoxy-benzenesulfonyl)-amino]-5-ethynyl-N-hydroxy-3-methyl-benzamide]
0.011 µM	0.05 µM	0.015 µM	0.132 µM	–	–	–	COc1ccc(S(=O)(=O)N(Cc2cccnc2)c2c(C)cc(C)cc2C(=O)NO)cc1 [Example 88, N-Hydroxy-2-[(4-methoxy-benzenesulfonyl)-pyridin-3-ylmethyl-amino]-3,5-dimethyl-benzamide]
0.02 µM	0.173 µM	0.011 µM	> 1 µM	–	–	–	COc1ccc(S(=O)(=O)N(Cc2cccc(OC)c2)c2c(C)cc(C)cc2C(=O)NO)cc1 [Example 115, N-Hydroxy-2-[(4-methoxy-benzenesulfonyl)-(3-methoxy-benzyl)-amino]-3,5-dimethyl-benzamide]
0.014 µM	0.271 µM	0.013 µM	0.201 µM	–	–	–	COc1ccc(S(=O)(=O)N(Cc2c(F)c(F)c(OC)c(F)c2F)c2c(C)cc(C)cc2C(=O)NO)cc1 [Example 116, N-Hydroxy-2-[(4-methoxy-benzenesulfonyl)-(2,3,5,6-tetrafluoro-4-methoxy-benzyl)-amino]-3,5-dimethyl-benzamide]
0.014 µM	0.252 µM	0.027 µM	0.223 µM	–	–	–	COc1ccc(S(=O)(=O)N(Cc2cccc(Br)c2)c2c(C)cc(C)cc2C(=O)NO)cc1 [Example 119, 2-[(3-Bromo-benzyl)-(4-methoxy-benzenesulfonyl)-amino]-N-hydroxy-3,5-dimethyl-benzamide]
0.039 µM	0.31 µM	0.018 µM	0.238 µM	–	–	–	COc1ccc(S(=O)(=O)N(Cc2ccc(Br)cc2)c2c(C)cc(C)cc2C(=O)NO)cc1 [Example 120, 2-[(4-Bromo-benzyl)-(4-methoxy-benzenesulfonyl)-amino]-N-hydroxy-3,5-dimethyl-benzamide]
0.013 µM	0.076 µM	0.004 µM	0.213 µM	–	–	–	COc1ccc(S(=O)(=O)N(C)c2c(C)cc(C)cc2C(=O)NO)cc1 [Example 130, N-Hydroxy-2-[(4-methoxy-benzenesulfonyl)-methyl-amino]-3,5-dimethyl-benzamide]
0.039 µM	0.176 µM	0.012 µM	0.347 µM	–	–	–	COc1ccc(S(=O)(=O)N(Cc2ccccc2)c2c(C(=O)NO)cccc2[N+](=O)[O-])cc1 [Example 170, 2-[Benzyl-(4-methoxy-benzenesulfonyl)-amino]-N-hydroxy-3-nitro-benzamide]
0.071 µM	–	0.016 µM	0.323 µM	–	50%	–	COc1ccc(S(=O)(=O)N(Cc2ccccc2)c2c(OCCCO)cccc2C(=O)NO)cc1 [Example 174, 2-[Benzyl-(4-methoxy-benzenesulfonyl)-amino]-N-hydroxy 3-(3-hydroxy-propoxy)-benzamide]
0.004 µM	0.057 µM	0.007 µM	0.09 µM	–	–	–	COc1ccc(S(=O)(=O)N(Cc2cccnc2)c2c(C)cc(-c3cccs3)cc2C(=O)NO)cc1 [Example 175, N-Hydroxy-2-[(4-methoxybenzenesulfonyl)-pyridin-3-ylmethyl-amino]-3-methyl-5-thiophen-2-yl benzamide]
–	–	0.013 µM	0.037 µM	0.061 µM	–	0.0014 µM	COc1ccc(S(=O)(=O)N(Cc2cccnc2)c2c(C(=O)NO)cc(C)cc2-c2ccco2)cc1 [Example 186, 3-Furan-2-yl-N-hydroxy-2-[(4-methoxybenzenesulfonyl)-pyridin-3-ylmethylamino]-5-methyl-benzamide]
